Source: ChEMBL document CHEMBL5325475, “Discovery of a Potent and Selective Tyrosine Kinase 2 Inhibitor: TAK-279” (J Med Chem, 2023)

Legend:
in vivo [1] = conditions: Sprague-Dawley, rat, po, 10 mg/kg
in vivo [2] = conditions: cynomolgus monkey, po, 10 mg/kg
in vivo [3] = conditions: C57Bl/6, mouse, po, 10 mg/kg
in vivo [4] = conditions: beagle, dog, po, 10 mg/kg
in vivo [5] = conditions: C57Bl/6, mouse, po, 10 mg/kg; remark: listed apart in the source
in vivo [6] = conditions: cynomolgus monkey, po, 10 mg/kg; remark: listed apart in the source
in vivo [7] = conditions: Sprague-Dawley, rat, po, 10 mg/kg; remark: listed apart in the source
in vivo [8] = conditions: beagle, dog, po, 10 mg/kg; remark: listed apart in the source

Row | Structure (SMILES) | bioavailability (in vivo [1]) [%] | half-life (in vivo [2]) [h] | bioavailability (in vivo [3]) [%] | half-life (in vivo [4]) [h] | half-life (in vivo [5]) [h] | bioavailability (in vivo [6]) [%] | half-life (in vivo [7]) [h] | bioavailability (in vivo [8]) [%]
1 | CNc1cc(Nc2cccn(-c3ncccc3F)c2=O)nc2c(C(=O)N[C@@H]3C[C@@H]3F)cnn12 | 59 | 1.4 | 52 | 3 | 2.2 | 97 | 2.7 | 51
2 | CNc1cc(Nc2cccn(-c3ccccn3)c2=O)nc2c(C(=O)N[C@H]3CC[C@@H]3OC)cnn12 (single isomer, unassigned) | 37 | 3.8 | 70 | 5.3 | 2 | 47 | 1.2 | 47
3 | CNc1cc(Nc2cccn(-c3ncccc3F)c2=O)nc2c(C(=O)N[C@@H]3CC[C@H]3OC)cnn12 | 30 |  |  |  | 2.1 |  | 5.9 | 
